{"source": "patent US10206896B2", "about": "“Method of treating delayed healing of a wound associated with diabetes” (KUWAIT UNIVERSITY, priority 2014, dated 2019)", "key": {"[1]": {"system": "control fibroblasts (CFs)", "assay": "In vitro scratch wound (cell migration) in control fibroblasts", "type": "cell-based, Wistar rat", "conditions": "24 hrs post-injury", "experimental": "Cell culture and HP treatment. […] Assessment of key fibroblast functions essential for wound healing. To assess cell proliferation, fibroblasts were seeded into a 96-well plate at a density of 1×10^4 per well and were allowed to adhere overnight in DMEM medium supplemented with 10% FCS. After arrest by incubation in serum-free medium for 24 hours, the cells were exposed to growth factors, and the incorporation of bromodeoxyuridine (BrdU) into DNA was determined using the manufacturer's protocol (Roche Diagnostics). Similarly, for the in vitro wound (migration) experiments, cultured fibroblasts were grown in six-well plates until they reached confluence. The medium was removed, the cells were washed with PBS 3× before culturing was continued in serum-free DMEM containing 0.5% BSA for an additional 24 hours. Thereafter, the monolayer was artificially wounded by using a pipette tip to scratch across the plate; the cells were washed with PBS to remove the detached cells and then cultured in serum-free medium in the presence of mitomyocin C (10 μg/ml) to prevent cell proliferation. The rate of wound healing was quantified as described in the literature […] Caveolin-1 protein expression and PDGF-induced phosphorylation of Akt (20 min) and ERK (10 min) in 24-hr serum starved fibroblasts were determined using a Western-blotting-based technique. A proliferation index encompassing BrdU incorporation into DNA and cell cycle progression was evaluated in response to various growth factors (e.g., IGF, 50 ng; PDGF, 1 nM; EGF, 100 ng) in 24-hr serum starved fibroblast. An in vitro wound-healing model conducted by scratching starved confluent cultured fibroblasts with a pipette tip was used to monitor the impact of PDGF on cell migration. […] In serum-induced proliferating cells in CFs, the optical density at 450 nm (OD450) was more than 10-fold higher than that observed for starved cells."}, "[2]": {"system": "control fibroblasts (CFs)", "assay": "BrdU incorporation into DNA (cell proliferation) in control fibroblasts", "type": "cell-based, Wistar rat", "conditions": "24-hr serum starved CFs, vs starved cells; dose providing the maximum response (IGF 50 ng, PDGF 1 nM, EGF 100 ng)", "experimental": "Cell culture and HP treatment. […] Assessment of key fibroblast functions essential for wound healing. To assess cell proliferation, fibroblasts were seeded into a 96-well plate at a density of 1×10^4 per well and were allowed to adhere overnight in DMEM medium supplemented with 10% FCS. After arrest by incubation in serum-free medium for 24 hours, the cells were exposed to growth factors, and the incorporation of bromodeoxyuridine (BrdU) into DNA was determined using the manufacturer's protocol (Roche Diagnostics). Similarly, for the in vitro wound (migration) experiments, cultured fibroblasts were grown in six-well plates until they reached confluence. The medium was removed, the cells were washed with PBS 3× before culturing was continued in serum-free DMEM containing 0.5% BSA for an additional 24 hours. […] The rate of wound healing was quantified as described in the literature […] Caveolin-1 protein expression and PDGF-induced phosphorylation of Akt (20 min) and ERK (10 min) in 24-hr serum starved fibroblasts were determined using a Western-blotting-based technique. A proliferation index encompassing BrdU incorporation into DNA and cell cycle progression was evaluated in response to various growth factors (e.g., IGF, 50 ng; PDGF, 1 nM; EGF, 100 ng) in 24-hr serum starved fibroblast. […]"}, "[3]": {"system": "diabetic fibroblasts (DFs)", "assay": "BrdU incorporation into DNA (cell proliferation) in diabetic fibroblasts", "type": "cell-based, GotoKakizaki (GK) rat", "conditions": "treated DFs compared with DFs", "experimental": "(§1) Cell culture and HP treatment.\nAssessment of key fibroblast functions essential for wound healing. To assess cell proliferation, fibroblasts were seeded into a 96-well plate at a density of 1×10^4 per well and were allowed to adhere overnight in DMEM medium supplemented with 10% FCS. After arrest by incubation in serum-free medium for 24 hours, the cells were exposed to growth factors, and the incorporation of bromodeoxyuridine (BrdU) into DNA was determined using the manufacturer's protocol (Roche Diagnostics). Similarly, for the in vitro wound (migration) experiments, cultured fibroblasts were grown in six-well plates until they reached confluence. The medium was removed, the cells were washed with PBS 3× before culturing was continued in serum-free DMEM containing 0.5% BSA for an additional 24 hours. Thereafter, the monolayer was artificially wounded by using a pipette tip to scratch across the plate; the cells were washed with PBS to remove the detached cells and then cultured in serum-free medium in the presence of mitomyocin C (10 μg/ml) to prevent cell proliferation. The rate of wound healing was quantified as described in the literature"}, "[4]": {"system": "circular wound of a diabetic rat", "assay": "Full-thickness excisional circular wound, rate of wound closure", "type": "in vivo, GotoKakizaki (GK) rat", "conditions": "composition of 30 μM 18α-GA and pluronic acid applied to the wound", "experimental": "Wound model, drug treatment and macroscopic evaluation. All of the animal procedures were performed in accordance with the NIH Guidance for the Care and Use of Laboratory Animals. Female GotoKakizaki rats (GK) were used in the current study. Detailed information regarding this animal model for non-obese type 2 diabetes has been previously described. Weight and age-matched female Wistar rats (Kuwait University breeding colony) served as the corresponding controls. All of the animals were maintained under standard conditions with a 12 hour on/off light cycle, commercial diet, and water ad libitum. […]\nThe targeted depletion of caveolin-1 was achieved using the antisense vivo-morpholino oligomers (MOs) that were synthesized and designed by Gene Tools, LLC (Eugene, Oreg.). […] The specificity of the cav-1 morphant phenotype was determined using rat caveolin-1 cRNA that lacked the antisense MO binding site. […] The wound area was analyzed using Adobe Photoshop (version 7.0; Adobe Systems), and the percentage of wound closure was derived by the following formula: (1−[current wound size/initial wound size])×100. […]\nFull-thickness excisional wounds were induced in the control and GK (a non-obese genetic model of type 2 diabetes), and key parameters related to cellular senescence, caveolin-1 signaling and oxidative stress were measured 10 days post-injury. […]"}, "[5]": {"system": "diabetic fibroblasts (DFs)", "protocol": "Cell culture and HP treatment. Primary dermal fibroblasts cell lines were established from the dorsal skin of female GotoKakizaki (GK; age 12-15 months) rat, a model for non-obese type 2 diabetes (DFs) and their Wistar control counterparts (CFs). Briefly, the dermis was cut into small pieces and incubated in Dulbecco's modified Eagle medium (DMEM; Invitrogen) containing collagenase (250 U/ml; Sigma) for 30 minutes at 37° C. in 5% CO2 with constant agitation. The sections were triturated vigorously to release fibroblasts, and these cells were collected by centrifugation. […]\nSenescence-associated β-galactosidase staining and quantification assays. The senescence-associated β-galactosidase (SA-β-gal) activity was determined using a senescence β-gal staining kit (Cell Signaling Technology). […] For a prices quantification of β-gal activity, the rate of conversion of 4-methylumbelliferyl-3-D-galactopyranoside to the fluorescence hydrolyzed product 4-methylumbellifrone at pH 6 was assessed using previously published procedure (Gary and kindell 2005).\nCFs were transfected with caveolin-1-pCMV(pCMV-Cav-1) or its vector control (pCMV-GRP), whereas DFs were rendered caveolin-1 deficient (Cav-1 siRNA) using siRNA-based technique. […] Most of the assays were performed in triplicate, and the data was expressed as the means±SEM of at least three independent experiments […]"}, "[6]": {"system": "chronic oxidative stress fibroblasts (OS-CFs)", "assay": "Premature senescence in chronic oxidative stress fibroblasts", "type": "cell-based, Wistar rat", "experimental": "as §1\nOxidatively-stressed CFs (OS-CFs). A heightened state of oxidative stress and premature senescence in CFs were induced using hydrogen peroxide (HP) as a stressor. The HP treatment was conducted by seeding approximately 1×10^6 cells in a T75 tissue culture flask. Twenty-four hours later, the cells were exposed to a sublethal dose of HP (150 μM) for 2 hours, washed 2× with PBS and after 4 days of culturing in HP free medium; they were split in a 1:2 ratio, and then the aforementioned protocol was repeated again for cells receiving the second and third HP treatment. A third passage HP-treated CFs denoted in the current study as (OS-CFs) together with the corresponding CFs and DFs were used in most of the assays outlined below."}}}
{"molecule": "IGF: mitotic growth factor", "values": [{"measurement": "number of cells that migrated into the cell-free wound zone", "setting": "[1]", "result": "markedly increased"}, {"measurement": "increase of proliferation rate (BrdU incorporation)", "setting": "[2]", "result": "~6.7", "unit": "fold"}]}
{"molecule": "PDGF", "values": [{"measurement": "number of cells that migrated into the cell-free wound zone", "setting": "[1]", "result": "markedly increased"}, {"measurement": "relative potency on cell migration among growth factors", "setting": "[1]", "result": "most potent among them"}, {"measurement": "increase of proliferation rate (BrdU incorporation)", "setting": "[2]", "result": "approximately 10 fold"}]}
{"molecule": "CC1(C)[C@@H](O)CC[C@]2(C)[C@H]3C(=O)C=C4[C@H]5C[C@@](C)(C(=O)O)CC[C@]5(C)CC[C@@]4(C)[C@]3(C)CC[C@@H]12", "note": "[18α-GA, 18α-Glycyrrhetinic acid]", "values": [{"measurement": "rate of proliferation (BrdU incorporation into DNA)", "setting": "[3]", "result": "increased rate of proliferation"}, {"measurement": "impaired wound healing (rate of wound closure)", "setting": "[4]", "result": "ameliorate impaired wound healing"}, {"measurement": "premature senescence", "setting": "[5]; DFs", "result": "can be reversed"}, {"measurement": "level/activity of SA-β-gal", "setting": "[5]; treated DFs compared with DFs", "result": "significantly lower level"}, {"measurement": "premature senescence", "setting": "[6]", "result": "can be reversed"}]}
